Read-outs that look alike come from different tables or passages of the source.
Assays:
AD skin lesions [1] = experiment: Pre- vs post-treatment cutaneous gene expression, betamethasone and pimecrolimus (NCBI GEO GSE32473), overlap with 89ADGES; type: in vivo, human; conditions: application to AD skin lesions, Fold Change ≥2.0, p-value<0.05
Procedure: (§1) Pre- and post-treatment gene expression datasets have been retrieved from publicly accessible database NCBI GEO, including datasets related to three widely-used treatments for AD: betamethasone and pimecrolimus (NCBI GEO data GSE32473), and dupilumab 300 mg (NCBI GEO data GSE59294).
Members of 89ADGES that are differentially regulated due to the application of betamethasone to AD skin lesions. […] CCL18, MSMB, SERPINB3 and SERPINB4 genes are associated with multiple array IDs.
BTC, CCL18, MSMB, IL-37, SERPINB3 and SERPINB4 genes are associated with multiple array IDs.
(§2) FIG. 6 is a table showing expression of members of the ECZEMA55 gene panel compared to normal skin. Expression changes are due to different treatment options. Betamethasone, pimecrolimus, and dupilumab are shown. Note direction and magnitude of treatment-related expression change for each gene. Treatment inducing change in a direction opposite to that occurring in ECZEMA55 can drive treatment-associated health benefits.

AD skin lesions [2] = experiment: Pre- vs post-treatment cutaneous gene expression, dupilumab 300 mg (NCBI GEO GSE59294), overlap with 89ADGES; type: in vivo, human; conditions: administration of dupilumab 300 mg, Fold Change ≥2.0, p-value<0.05
Procedure: as §1
CCL18, IL-37, SERPINB3 and SERPINB4 genes are associated with multiple array IDs.
Samples in Dupilumab dataset include GSE59294.
as §2

atopic dermatitis [3] = experiment: Symptom score of paired patient samples (pEASI reduction in GSE32473; pre-/post-treatment EASI in GSE59294); type: in vivo, human
Procedure: Gene expression data related to ECZEMA55 genes were extracted for pre- and post-treatment samples. Values were expressed as post-treatment/pre-treatment ratio. Variable selection or feature selection was performed by clustering of 55 genes into smaller number of coherent clusters and identifying the most representative gene per cluster. Representative genes were used to build a regression model which can be used to efficiently model the data. Outcome variable was defined either as the reduction in symptom score (available as per subject pEASI reduction; pEASI=partial EASI reduction in dataset GSE32473) or as the post-treatment symptom score (taking pre-treatment symptom score as an independent covariate and per subject pre-treatment symptom scores is available, as in the dataset GSE59294). A regression model was generated and regression trees were constructed. Classification/prediction and efficiency of the model were determined. Samples in Dupilumab dataset include GSE59294. […] We therefore added pre-treatment symptom score for analysis and for generating regression models

ECZEMA55 genes = experiment: Quantitative RT-PCR of ECZEMA55 genes in pre- and post-treatment skin biopsy of an AD patient (Example 7); type: in vivo, human; conditions: one AD patient; 600 mg then two 300 mg s.c. injections over 4 weeks
Procedure: An AD patient comes to the clinic with severe itch and lesions on at least 45% of their body surface. Symptoms indicate a possible diagnosis of atopic dermatitis. They are not sufficiently controlled by topical treatments like pimecrolimus and betamethasone. The patient is advised to begin dupilumab treatment. Duplimumab is administered by subcutaneous injection at recommended dosing for adult patients, which is initially at a dose of 600 mg, followed by 300 mg administered every two weeks. The patient is given one 600 mg injection followed by two 300 mg injections over the course of 4 weeks. Pre- and post-treatment samples are collected and stored in RNA later solution (Invitrogen) at −80° C.
Pre- and post-treatment skin biopsy is performed using a minimally invasive disposable punch. The skin biopsy site is swabbed with isopropyl alcohol (70%) and anesthetized with local anesthetic (1 mL of 1% lidocaine+adrenaline). Using a punch biopsy needle, a 4 mm^2 full thickness skin biopsy from the lesion is obtained and stored in RNA later solution and sent to the diagnostic lab to perform RT-PCR assay.
RNA is isolated from the tissue and subjected to quantitative RT-PCR to compare the levels of expression of the ECZEMA55 genes of the patient's tissue to normal healthy skin. […] The treatment is assessed as effective and the patient is advised to receive further dupilumab treatment doses.

atopic dermatitis [4] = conditions: Dupilumab 300 mg, GSE59294, cited from earlier work; for EASI-POST: post-treatment; for EASI-PRE: pre-treatment

CC[C@@H]1/C=C(\C)C[C@H](C)C[C@H](OC)[C@H]2O[C@@](O)(C(=O)C(=O)N3CCCC[C@H]3C(=O)O[C@H](/C(C)=C/[C@@H]3CC[C@H](Cl)[C@H](OC)C3)[C@H](C)[C@@H](O)CC1=O)[C@H](C)C[C@@H]2OC [pimecrolimus]
Number of 89ADGES genes differentially regulated in treated biopsy samples compared to baseline pre-treatment condition (AD skin lesions [1]): 41 genes

dupilumab: fully humanized monoclonal IgG4 antibody that inhibits IL-4 and IL-13 signaling by binding the IL-4Rα subunit
Number of 89ADGES genes differentially regulated in treated biopsy samples compared to baseline pre-treatment condition (AD skin lesions [2]): 42 genes
EASI-post/pre (atopic dermatitis [3]; Patient 1, Dupilumab 300 mg): 0.263
EASI-post/pre (atopic dermatitis [3]; Patient 2, Dupilumab 300 mg): 0.122
EASI-post/pre (atopic dermatitis [3]; Patient 3, Dupilumab 300 mg): 0.044
Direction of ECZEMA55 gene expression change after treatment (ECZEMA55 genes): opposite to gene expression in AD disease state compared to healthy skin
Number of ECZEMA55 genes with expression changed compared to pre-treatment (ECZEMA55 genes): about 30 genes
EASI-POST (atopic dermatitis [4]; Patient 1): 9.105
EASI-PRE (atopic dermatitis [4]; Patient 1): 34.6
EASI-POST (atopic dermatitis [4]; Patient 2): 3.835
EASI-PRE (atopic dermatitis [4]; Patient 2): 31.45
EASI-POST (atopic dermatitis [4]; Patient 3): 1.526
EASI-PRE (atopic dermatitis [4]; Patient 3): 34.65

C[C@H]1C[C@H]2[C@@H]3CCC4=CC(=O)C=C[C@]4(C)[C@@]3(F)[C@@H](O)C[C@]2(C)[C@@]1(O)C(=O)CO [betamethasone]
Number of 89ADGES genes differentially regulated in treated biopsy samples compared to baseline pre-treatment condition (AD skin lesions [1]): 45 genes
